In patent US20230398109A1, “USE OF PQQ AND DERIVATIVE THEREOF” (GUANGZHOU HUTONGYOUWU BIOTECHNOLOGY CO., LTD, priority 2021, published 2023):

Assays:
Type in all cases: in vivo, human
[1] = tested on: patients with secondary dysmenorrhea; assay: Treatment of patients with secondary dysmenorrhea, oral PQQ vs placebo, 3 months; conditions: for Proportion of people with alleviation in secondary dysmenorrhea: 50 people
Procedure: Experiment number: 100 peoples have been diagnosed with secondary dysmenorrhea, with 50 peoples in the experimental group and the control group each. Experimental method: administering PQQ orally to the patients of experimental group, administering placebo orally to the patients of control group. The duration of the experiment was 3 months, and menstrual pain and pregnancy were asked and recorded. The dysmenorrhea index is determined based on the VAS scoring standard, which means patients self-evaluate the intensity of pain and the degree of psychologically unpleasant experience according to the degree of pain they feel, including: • 0 points: no pain; • 1-3 points: mild pain; • 4-6 points: moderate pain; • 7-9 points: severe pain; • 10 points: unbearable pain.

[2] = tested on: patients with primary dysmenorrhea; assay: Treatment of patients with primary dysmenorrhea, oral PQQ vs placebo, 3 months; conditions: for Proportion of people with alleviation in primary dysmenorrhea (self-assessment): 50 people
From the text: Experiment number: 100 people have been diagnosed with primary dysmenorrhea, 50 people in the experimental group and the control group. Experimental method: administering PQQ orally to the patients of experimental group, administering placebo orally to the patients of control group. The duration of the experiment was 3 months, and menstrual pain was asked and recorded.

[3] = tested on: patients with menstrual abnormalities; assay: Treatment of patients with abnormal menstruation, oral PQQ vs placebo, 3 months; conditions: experimental group
Procedure: Experiment number: 100 peoples diagnosed with menstrual abnormalities, 50 people in the experimental group and the control group each. Experimental method: administering PQQ orally to the patients of experimental group, administering placebo orally to the patients of control group. The duration of the experiment was 3 months, and menstrual conditions (duration of menstrual, consumption and weights of sanitary napkin) were measured and recorded.

O=C(O)c1cc(C(=O)O)c2c(n1)C(=O)C(=O)c1cc(C(=O)O)[nH]c1-2 [PQQ, 4,5-dioxo-1H-pyrrolo[2,3-f]quinoline-2,7,9-tricarboxylic acid]
average dysmenorrhea index (VAS score) change ([1]; FIG. 1, during treatment): decreased significantly | Proportion of people with alleviation in secondary dysmenorrhea ([1]; evaluation time 1 month): 82% | Proportion of people with alleviation in secondary dysmenorrhea ([1]; evaluation time 3 months): 100% | cases that became pregnant ([1]; experimental group of 50, 3 months): 2 cases | dysmenorrhea index alleviated compared to the beginning of the experiment ([1]; experimental group, 3 months): 100% | Proportion of people with alleviation in primary dysmenorrhea (self-assessment) ([2]; evaluation time 1 month): 98% | Proportion of people with alleviation in primary dysmenorrhea (self-assessment) ([2]; evaluation time 3 months): 100% | dysmenorrhea index alleviated compared to beginning of the experiment ([2]; experimental group, 3 months): 100% | average monthly menstrual bleeding duration after treatment ([3]; 3 months oral, FIG. 2): about 1 week | decrease of average amount of menstrual bleeding ([3]; 3 months oral, FIG. 3 (sanitary napkin consumption)): more than 30% | average monthly menstrual bleeding duration at beginning of the experiment ([3]; baseline, FIG. 2): about 2 weeks
